Laboratory results published in EP2891654B1, “Optically pure benzyl-4-chlorophenyl-C-glucoside derivatives as SGLT inhibitors (diabetes mellitus)” (Xuanzhu Pharma Co., Ltd., priority 2014, dated 2015).

How the values were obtained:
SGLT-2 = target: T1, SGLT-2 (Homo sapiens, UniProt P31639); assay: in-vitro assay: inhibition of sodium dependent [14C]-AMG uptake into CHO cells stably expressing human SGLT-2; type: cell-based; settings: for IC50: CHO cells stably expressing human SGLT-2, [14C]-AMG uptake, 37°C, 1hr; for Selectivity: ratio SGLT-1 IC50 / SGLT-2 IC50
T1 construct: expressed in transfected cells
T1 sequence (P31639 1-672): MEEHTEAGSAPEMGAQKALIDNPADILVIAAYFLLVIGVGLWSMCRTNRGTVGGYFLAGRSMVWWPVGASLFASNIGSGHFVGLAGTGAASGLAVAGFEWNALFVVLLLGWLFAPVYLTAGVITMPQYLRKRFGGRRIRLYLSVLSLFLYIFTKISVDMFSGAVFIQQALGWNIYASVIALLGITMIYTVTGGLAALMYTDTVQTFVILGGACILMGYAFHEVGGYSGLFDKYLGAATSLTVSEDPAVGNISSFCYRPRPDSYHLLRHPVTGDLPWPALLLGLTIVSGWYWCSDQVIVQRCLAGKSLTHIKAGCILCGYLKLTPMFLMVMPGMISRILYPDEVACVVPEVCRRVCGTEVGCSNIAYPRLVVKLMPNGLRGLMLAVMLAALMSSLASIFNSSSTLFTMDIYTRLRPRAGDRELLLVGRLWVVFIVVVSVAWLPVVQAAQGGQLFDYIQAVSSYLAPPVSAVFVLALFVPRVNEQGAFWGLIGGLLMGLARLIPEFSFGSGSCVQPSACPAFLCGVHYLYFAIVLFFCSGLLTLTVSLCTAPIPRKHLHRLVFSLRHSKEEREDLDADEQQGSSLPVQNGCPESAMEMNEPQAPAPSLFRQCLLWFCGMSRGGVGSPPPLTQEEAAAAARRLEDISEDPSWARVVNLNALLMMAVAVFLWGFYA
Procedure: In the in-vitro assay for the pharmacological activities of the present compounds, the human SGLT-2 and SGLT-1 sequences were transfected to Chinese hamster ovary cells to express stably. By measuring inhibition of the sodium dependent adsorption of [^14C]-labeled […]-D-glucopyranoside (AMG) into the cells, the half-inhibition concentration IC50 was determined.
Buffer A (KRH-Na^+): 120 mM NaCl, 4.7 mM KCI, 1.2 mM MgCl2, 2.2 mM CaCl2, 10 mM HEPES (PH 7.4 with 1 mM Tris).
Buffer A- (KRH-NMG): 120 mM NMG, 4.7 mM KCl, 1.2 mM MgCl2, 2.2 mM CaCl2, 10 mM HEPES (PH 7.4 with 1 mM Tris).
Buffer D: 120 mM NaCl, 4.7 mM KCl, 1.2 mM MgCl2, 2.2 mM CaCl2, 10 mM HEPES, 0.5 mM phlorizin (PH 7.4 with 1 mM Tris).
Assay method: Human SGLT-2 and SGLT-1 sequences were stably expressed in the CHO cells. The cell culture was conducted in a 96-well plate for 12hr. The plate was washed with KRH-Na+ (Buffer A) or KRH-NMG (Buffer A-) buffering solution for three times, 200µL/well. Then the plate was added with a buffering solution containing Buffer A or Buffer A- plus [^14C]-AMG (10 µCi/mL), 100µL/well. The cell culture was conducted at 37°C for 1hr. Then, 100µL of an ice pre-cooled buffering solution (Buffer D) was added to terminate the assay. The plate was washed for five times. Then an ice pre-cooled lytic buffering solution (100mM NaOH solution) was added, 20 µL/well, and the centrifugation at 600rpm was conducted for 5mins. Then Microscint 40 solution was added, 80 µl/well, and the centrifugation at 600rpm was conducted for 5mins. Finally, the radioactivity of [^14C]-AMG was detected with MicroBeta Trilux (purchased from PerkinElmer Co. Ltd.) according to the scintillation counting method, and the half-inhibition concentration IC50 was calculated.

[1] = rat in-vivo pharmacokinetic assay (PO); settings: Sprague-Dawley (SD), male SD rats, 10 mg/kg; for Cmax: peak concentration in the plasma; for AUC(0-t) / AUC(0-inf) / half-life / Tmax: plasma; for AUC(0-t): area under curve from time=0→t; for AUC(0-inf): area under curve from time=0→∞; for Tmax: time to peak the concentration in the plasma
Procedure: Assay animals: 6-8 weeks aged male SD rats (purchased from Vital River Laboratories), 3 rats per compound, weighing 200-240g.
Solvent: 0.5% MC(methyl cellulose) solution + 0.1% SDS (sodium dodecyl sulfate).
Intragastric administration (PO): See Table 2 Table 2 Administration of compounds in the rat PK (pharmacokinetic) assay
Blood collection: each of 200 µL whole blood were collected at 0.17hr, 0.5hr, 1hr, 2hr, 4hr, 6hr, 8hr, 24hr, 30hr, 48hr, 54hr and 72hr. The collected blood samples were centrifuged at 4°C at 8000rpm in a low temperature high-speed centrifuge (5415R, Eppendorf) for 6mins to separate the blood plasma. The separated plasma was preserved at -80 °C in a refrigerator.
20µL of the plasma was carefully taken out, to which was added 600µL of an internal standard MTBE (methyl tert-butyl ether) solution (containing internal standard dapagliflozin 25ng/ml). The plasma was subjected to a vortex at 1500 rpm for 10mins, and then centrifuged at 12000 rpm for 5mins. 400µL of the supernatant was taken and blow-dried with nitrogen gas. The dried substance was redissolved with 200µL of a redissolving solution (acetonitrile:water=7:3). The solution was subjected to a vortex for 10mins, and analyzed with LC-MS/MS (API4000, Aplplied Biosystems). Table 3. Rat PK (pharmacokinetic) evaluation results (PO) for the compounds

SGLT-1 = target: T2, SGLT-1 (Homo sapiens, UniProt P13866); assay: in-vitro assay: inhibition of sodium dependent [14C]-AMG uptake into CHO cells stably expressing human SGLT-1; type: cell-based; settings: 37°C, 1hr
T2 construct: expressed in transfected cells
T2 sequence (P13866 1-664): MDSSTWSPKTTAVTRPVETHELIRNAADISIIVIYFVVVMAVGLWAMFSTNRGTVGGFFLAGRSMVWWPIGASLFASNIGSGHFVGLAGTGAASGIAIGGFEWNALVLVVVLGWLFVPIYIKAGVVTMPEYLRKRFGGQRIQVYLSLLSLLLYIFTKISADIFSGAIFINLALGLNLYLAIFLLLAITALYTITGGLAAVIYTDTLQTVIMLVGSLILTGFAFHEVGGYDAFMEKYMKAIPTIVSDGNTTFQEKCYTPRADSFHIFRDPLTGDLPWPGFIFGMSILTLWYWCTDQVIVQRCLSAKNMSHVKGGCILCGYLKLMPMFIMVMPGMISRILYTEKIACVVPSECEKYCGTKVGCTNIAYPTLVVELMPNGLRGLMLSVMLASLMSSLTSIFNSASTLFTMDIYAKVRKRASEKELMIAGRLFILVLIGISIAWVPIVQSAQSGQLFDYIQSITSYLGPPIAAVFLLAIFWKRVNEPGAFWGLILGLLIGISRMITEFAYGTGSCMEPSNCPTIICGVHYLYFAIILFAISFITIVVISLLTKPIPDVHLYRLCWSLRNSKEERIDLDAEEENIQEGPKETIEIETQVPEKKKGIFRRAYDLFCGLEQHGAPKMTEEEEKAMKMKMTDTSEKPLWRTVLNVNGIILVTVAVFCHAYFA
Procedure: In the in-vitro assay for the pharmacological activities of the present compounds, the human SGLT-2 and SGLT-1 sequences were transfected to Chinese hamster ovary cells to express stably. By measuring inhibition of the sodium dependent adsorption of [^14C]-labeled […]-D-glucopyranoside (AMG) into the cells, the half-inhibition concentration IC50 was determined. […] Buffer D: 120 mM NaCl, 4.7 mM KCl, 1.2 mM MgCl2, 2.2 mM CaCl2, 10 mM HEPES, 0.5 mM phlorizin (PH 7.4 with 1 mM Tris). Assay method: Human SGLT-2 and SGLT-1 sequences were stably expressed in the CHO cells. […] The plate was washed for five times. […] Finally, the radioactivity of [^14C]-AMG was detected with MicroBeta Trilux (purchased from PerkinElmer Co. Ltd.) according to the scintillation counting method, and the half-inhibition concentration IC50 was calculated.

| Compound | IC50 (SGLT-2) [nM] | Cmax [1] [ng/mL] | AUC(0-t) [1] [ng·h/mL] | AUC(0-inf) [1] [ng·h/mL] | half-life [1] [h] | Tmax [1] [h] | IC50 (SGLT-1) [nM] | Selectivity (SGLT-2) |
| --- | --- | --- | --- | --- | --- | --- | --- | --- |
| OC[C@H]1O[C@H](c2ccc(Cl)c(Cc3ccc(O[C@H]4C[C@@H]5C[C@@H]5C4)cc3)c2)[C@H](O)[C@@H](O)[C@@H]1O [Compound represented by formula (IV), (2R,3R,4R,5S,6R)-2-(3-(4-(((1R,3s,5S)-bicyclo[3.1.0]hexan-3-yl)oxy)benzyl)-4-chlorophenyl)-6-(hydroxymethyl)tetrahydro-2H-pyran-3,4,5-triol] | 1110 |  |  |  |  |  |  |  |
| OC[C@H]1O[C@H](c2ccc(Cl)c(Cc3ccc(O[C@@H]4C[C@@H]5C[C@@H]5C4)cc3)c2)[C@H](O)[C@@H](O)[C@@H]1O [Compound represented by formula (V), (2R,3R,4R,5S,6R)-2-(3-(4-(((1R,3r,5S)-bicyclo[3.1.0]hexan-3-yl)oxy)benzyl)-4-chlorophenyl)-6-(hydroxymethyl)tetrahydro-2H-pyran-3,4,5-triol] | 282 |  |  |  |  |  |  |  |
| OC[C@H]1O[C@@H](c2ccc(Cl)c(Cc3ccc(O[C@@H]4C[C@@H]5C[C@@H]5C4)cc3)c2)[C@H](O)[C@@H](O)[C@@H]1O [Compound represented by formula (III), (2S,3R,4R,5S,6R)-2-(3-(4-(((1R,3r,5S)-bicyclo[3.1.0]hexan-3-yl)oxy)benzyl)-4-chlorophenyl)-6-(hydroxymethyl)tetrahydro-2H-pyran-3,4,5-triol] | 7.83 |  |  |  |  |  |  |  |
| OC[C@H]1O[C@@H](c2ccc(Cl)c(Cc3ccc(OC4CC5CC5C4)cc3)c2)[C@H](O)[C@@H](O)[C@@H]1O (some centres unmarked) [Reference compound 2] |  | 4980 | 69300 | 69400 | 8.18 | 2 |  |  |
| OC[C@H]1OC(c2ccc(Cl)c(Cc3ccc(OC4CC5CC5C4)cc3)c2)[C@H](O)[C@@H](O)[C@@H]1O (some centres unmarked) [Reference compound 1] | 3.63 | 4140 | 69600 | 70300 | 10.3 | 2 | 2400 | 660.52 |
| OC[C@H]1O[C@@H](c2ccc(Cl)c(Cc3ccc(O[C@H]4C[C@@H]5C[C@@H]5C4)cc3)c2)[C@H](O)[C@@H](O)[C@@H]1O [Compound represented by formula (II), (2S,3R,4R,5S,6R)-2-(3-(4-(((1R,3s,5S)-bicyclo[3.1.0]hexan-3-yl)oxy)benzyl)-4-chlorophenyl)-6-(hydroxymethyl)tetrahydro-2H-pyran-3,4,5-triol] | 2.5 |  |  |  |  | 1 | 17200 | 6886.93 |
